# ChEMBL document CHEMBL1201862, “PubChem BioAssay data set” (2004)
# Active and inactive are the calls of the source.
# What was measured:
# [1] = THP-1 cell cytotoxicity, dose response, cytotoxicity control for non-replicating M. tuberculosis project (AID 489025); format: functional
# cells [2] = format: functional
# [3] = biological target: FAD-linked sulfhydryl oxidase ALR (Homo sapiens, UniProt P55789); assay: ALR-catalysed DTT oxidation blockers – biochemical, H2O2 detection, luminescence, cherry-pick, dose response (AID 493248)
# Sequence of FAD-linked sulfhydryl oxidase ALR (P55789 whole entry): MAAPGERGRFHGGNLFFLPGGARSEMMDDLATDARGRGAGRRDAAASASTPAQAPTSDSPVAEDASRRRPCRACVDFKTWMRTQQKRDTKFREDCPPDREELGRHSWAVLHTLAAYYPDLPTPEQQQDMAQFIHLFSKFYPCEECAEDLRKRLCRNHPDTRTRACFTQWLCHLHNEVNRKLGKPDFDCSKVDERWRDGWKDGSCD
# [4] = biological target: Voltage-dependent T-type calcium channel subunit alpha-1H (Homo sapiens, UniProt O95180); format: functional;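 further: channel activity triggered by adding a high calcium stimulation buffer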
# Sequence of Voltage-dependent T-type calcium channel subunit alpha-1H (O95180 whole entry): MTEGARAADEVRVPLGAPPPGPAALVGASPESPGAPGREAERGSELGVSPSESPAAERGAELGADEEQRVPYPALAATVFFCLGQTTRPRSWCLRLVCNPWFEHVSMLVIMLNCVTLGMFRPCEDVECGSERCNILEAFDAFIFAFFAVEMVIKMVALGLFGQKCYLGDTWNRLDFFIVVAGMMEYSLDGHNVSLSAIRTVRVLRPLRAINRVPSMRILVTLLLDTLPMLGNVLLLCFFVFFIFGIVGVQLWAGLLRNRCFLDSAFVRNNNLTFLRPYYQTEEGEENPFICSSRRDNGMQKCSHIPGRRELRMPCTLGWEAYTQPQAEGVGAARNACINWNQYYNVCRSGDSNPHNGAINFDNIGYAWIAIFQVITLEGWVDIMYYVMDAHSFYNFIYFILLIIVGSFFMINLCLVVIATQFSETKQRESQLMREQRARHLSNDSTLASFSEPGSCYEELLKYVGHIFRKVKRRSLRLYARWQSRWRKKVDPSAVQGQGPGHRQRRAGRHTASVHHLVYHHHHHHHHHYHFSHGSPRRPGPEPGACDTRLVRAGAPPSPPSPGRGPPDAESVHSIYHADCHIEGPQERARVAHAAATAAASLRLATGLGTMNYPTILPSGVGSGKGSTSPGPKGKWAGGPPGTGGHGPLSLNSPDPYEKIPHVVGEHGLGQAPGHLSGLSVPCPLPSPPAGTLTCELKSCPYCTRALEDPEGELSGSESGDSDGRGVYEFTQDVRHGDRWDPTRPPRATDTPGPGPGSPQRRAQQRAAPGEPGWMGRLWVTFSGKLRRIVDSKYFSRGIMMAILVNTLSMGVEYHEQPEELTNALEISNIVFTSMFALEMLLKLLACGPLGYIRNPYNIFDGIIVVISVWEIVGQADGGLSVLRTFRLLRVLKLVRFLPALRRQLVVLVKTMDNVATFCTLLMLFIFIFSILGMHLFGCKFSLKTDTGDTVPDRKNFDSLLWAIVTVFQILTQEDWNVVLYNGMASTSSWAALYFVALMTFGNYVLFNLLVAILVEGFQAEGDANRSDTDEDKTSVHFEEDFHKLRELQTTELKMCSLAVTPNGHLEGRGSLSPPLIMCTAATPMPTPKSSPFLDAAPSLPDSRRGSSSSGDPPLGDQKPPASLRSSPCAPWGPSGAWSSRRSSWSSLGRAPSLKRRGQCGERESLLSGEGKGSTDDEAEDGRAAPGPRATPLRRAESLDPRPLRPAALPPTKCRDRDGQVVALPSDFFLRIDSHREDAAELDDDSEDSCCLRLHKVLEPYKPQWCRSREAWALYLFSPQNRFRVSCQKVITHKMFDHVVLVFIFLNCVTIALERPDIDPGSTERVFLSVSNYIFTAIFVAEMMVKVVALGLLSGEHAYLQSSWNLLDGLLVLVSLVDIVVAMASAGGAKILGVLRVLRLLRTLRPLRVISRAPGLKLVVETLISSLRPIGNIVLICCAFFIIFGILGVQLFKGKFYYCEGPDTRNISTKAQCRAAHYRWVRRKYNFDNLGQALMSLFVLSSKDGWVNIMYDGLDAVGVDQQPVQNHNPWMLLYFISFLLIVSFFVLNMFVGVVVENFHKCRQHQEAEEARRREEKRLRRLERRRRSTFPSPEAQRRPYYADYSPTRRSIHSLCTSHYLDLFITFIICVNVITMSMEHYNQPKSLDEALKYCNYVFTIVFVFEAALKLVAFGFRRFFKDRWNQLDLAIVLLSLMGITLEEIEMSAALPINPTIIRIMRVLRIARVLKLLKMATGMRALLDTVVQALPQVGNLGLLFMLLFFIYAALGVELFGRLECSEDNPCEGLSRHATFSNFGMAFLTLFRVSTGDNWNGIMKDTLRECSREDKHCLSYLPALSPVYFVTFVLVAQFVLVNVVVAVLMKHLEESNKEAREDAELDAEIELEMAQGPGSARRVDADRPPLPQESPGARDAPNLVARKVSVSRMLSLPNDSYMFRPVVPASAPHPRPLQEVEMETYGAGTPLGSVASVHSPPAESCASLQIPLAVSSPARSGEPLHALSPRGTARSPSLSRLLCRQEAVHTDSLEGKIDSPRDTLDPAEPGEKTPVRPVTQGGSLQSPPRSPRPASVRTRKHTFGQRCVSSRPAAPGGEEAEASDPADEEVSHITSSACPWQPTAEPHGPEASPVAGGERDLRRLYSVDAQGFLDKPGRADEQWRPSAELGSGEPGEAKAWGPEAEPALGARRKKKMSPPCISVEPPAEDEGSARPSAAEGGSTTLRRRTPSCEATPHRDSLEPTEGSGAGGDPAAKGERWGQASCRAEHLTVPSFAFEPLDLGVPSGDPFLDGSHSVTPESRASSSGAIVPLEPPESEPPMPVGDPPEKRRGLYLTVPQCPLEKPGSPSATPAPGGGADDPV
# [5] = NIH-3T3 fibroblast cytotoxicity, dose response, cytotoxicity control, cell-based, fluorescence, Alamar Blue, secondary assay (AID 2327); format: functional;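 further: NIH-3T3 mouse fibroblasts cultured with fluconazole at 8 µg/mL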
# cells [6] = format: functional, cell-based
# cells [7] = format: functional, cell-based; remark: listed apart in the source
# [8] = biological target: T1, High affinity choline transporter 1 (Homo sapiens, UniProt Q9GZV3); assay: human choline transporter blockers, potency – cell-based, 5-point CRC, membrane potential dye, dose response (AID 504840); format: functional
# T1 sequence (Q9GZV3 whole entry): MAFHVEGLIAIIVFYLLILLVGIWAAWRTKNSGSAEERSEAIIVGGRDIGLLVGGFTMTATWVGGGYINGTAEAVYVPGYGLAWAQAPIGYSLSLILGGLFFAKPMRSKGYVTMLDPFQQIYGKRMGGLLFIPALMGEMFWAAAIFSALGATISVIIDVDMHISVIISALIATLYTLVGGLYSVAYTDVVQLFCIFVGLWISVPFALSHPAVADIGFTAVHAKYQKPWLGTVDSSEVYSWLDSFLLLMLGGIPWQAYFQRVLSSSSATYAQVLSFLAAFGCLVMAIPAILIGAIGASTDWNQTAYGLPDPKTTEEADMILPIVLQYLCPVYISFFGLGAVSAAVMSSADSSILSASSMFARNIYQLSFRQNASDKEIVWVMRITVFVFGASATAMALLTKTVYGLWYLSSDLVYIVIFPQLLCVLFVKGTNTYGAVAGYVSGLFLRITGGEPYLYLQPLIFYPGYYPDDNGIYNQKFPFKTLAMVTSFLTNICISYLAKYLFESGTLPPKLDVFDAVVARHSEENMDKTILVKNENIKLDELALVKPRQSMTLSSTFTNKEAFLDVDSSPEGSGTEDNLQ
# [9] = biological target: T2, Polyadenylate-binding protein 1 (Homo sapiens, UniProt P11940); assay: MLLE binding blockers, Cy5 peptide tracer – biochemical, fluorescence polarization, Cy5-PAM2 peptide, secondary, miRNA deadenylation inhibitor project, dose response (AID 602260); format: functional; conditions: read-out: IC50_Mean
# T2 sequence (P11940 whole entry, the tested form may be a part): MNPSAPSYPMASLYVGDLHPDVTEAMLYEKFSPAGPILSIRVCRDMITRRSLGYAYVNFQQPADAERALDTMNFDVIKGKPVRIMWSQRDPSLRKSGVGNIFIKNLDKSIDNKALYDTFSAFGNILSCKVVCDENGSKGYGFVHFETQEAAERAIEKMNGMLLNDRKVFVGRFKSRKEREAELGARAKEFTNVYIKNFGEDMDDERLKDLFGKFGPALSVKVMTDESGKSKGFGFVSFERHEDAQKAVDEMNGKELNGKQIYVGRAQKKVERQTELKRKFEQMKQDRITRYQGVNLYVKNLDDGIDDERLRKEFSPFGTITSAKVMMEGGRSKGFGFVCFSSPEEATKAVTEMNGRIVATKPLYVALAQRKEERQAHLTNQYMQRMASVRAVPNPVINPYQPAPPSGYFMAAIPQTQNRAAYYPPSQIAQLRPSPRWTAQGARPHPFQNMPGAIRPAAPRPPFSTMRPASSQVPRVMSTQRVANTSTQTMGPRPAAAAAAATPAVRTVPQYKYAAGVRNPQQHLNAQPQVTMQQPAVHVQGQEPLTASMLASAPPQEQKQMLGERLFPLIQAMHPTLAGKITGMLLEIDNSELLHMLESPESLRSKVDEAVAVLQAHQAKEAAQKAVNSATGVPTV
# [10] = biological target: T2, Polyadenylate-binding protein 1; assay: MLLE domain peptide-binding blockers, IC50 – biochemical, fluorescence polarization, FITC-PAM2 peptide, dose response (AID 602259); format: functional; conditions: read-out: IC50_Mean
# Estrogen receptor beta = Estrogen receptor beta (Homo sapiens, UniProt Q92731);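 further: recombinant ER-beta bound to coactivator SRC1 peptide in presence of estradiol agonist; inhibitors block coactivator peptide binding and lower the FRET signal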
# Sequence of Estrogen receptor beta (Q92731 whole entry): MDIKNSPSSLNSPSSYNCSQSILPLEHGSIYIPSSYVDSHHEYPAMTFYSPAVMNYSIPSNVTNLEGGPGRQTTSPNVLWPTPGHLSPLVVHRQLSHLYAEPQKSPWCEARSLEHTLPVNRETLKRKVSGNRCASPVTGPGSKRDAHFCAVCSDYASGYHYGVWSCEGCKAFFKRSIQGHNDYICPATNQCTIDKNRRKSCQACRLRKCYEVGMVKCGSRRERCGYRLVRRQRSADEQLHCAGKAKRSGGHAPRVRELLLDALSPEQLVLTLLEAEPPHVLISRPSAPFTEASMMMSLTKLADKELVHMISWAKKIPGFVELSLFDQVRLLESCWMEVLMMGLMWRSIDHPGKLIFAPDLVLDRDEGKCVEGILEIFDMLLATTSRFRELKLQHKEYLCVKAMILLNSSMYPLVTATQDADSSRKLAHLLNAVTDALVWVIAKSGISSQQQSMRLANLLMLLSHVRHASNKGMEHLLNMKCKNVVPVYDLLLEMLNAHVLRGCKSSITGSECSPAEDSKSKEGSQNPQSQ
# Fatty acid synthase [11] = biological target: T3, Fatty acid synthase (Homo sapiens, UniProt P49327); assay: inhibition of human FAS-TE enzyme activity – biochemical, endpoint fluorescence intensity, uHTS hits, dose response (AID 624327); format: functional;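 further: fluorescence from hydrolysis of an O-methyl fluorescein acyl ester substrate by the enzyme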
# Fatty acid synthase [12] = biological target: T3, Fatty acid synthase; assay: inhibition of human FAS-TE enzyme activity – biochemical, kinetic fluorescence intensity, dose response (AID 624326); format: functional;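 further: rate of fluorescence rise from hydrolysis of a fluorogenic O-methyl fluorescein ester substrate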
# [13] = biological target: Glyceraldehyde-3-phosphate dehydrogenase (Homo sapiens, UniProt P04406)
# Sequence of Glyceraldehyde-3-phosphate dehydrogenase (P04406 whole entry): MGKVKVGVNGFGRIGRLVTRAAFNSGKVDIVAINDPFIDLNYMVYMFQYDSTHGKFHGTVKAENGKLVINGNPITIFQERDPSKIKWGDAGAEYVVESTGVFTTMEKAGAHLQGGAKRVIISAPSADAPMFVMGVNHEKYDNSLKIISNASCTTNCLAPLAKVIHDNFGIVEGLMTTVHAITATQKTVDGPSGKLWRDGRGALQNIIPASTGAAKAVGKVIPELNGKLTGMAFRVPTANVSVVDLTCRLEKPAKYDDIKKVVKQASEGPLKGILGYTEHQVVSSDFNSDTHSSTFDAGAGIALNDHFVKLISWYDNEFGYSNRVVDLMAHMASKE
# [14] = tested on: Streptococcus sp. 'group A'; assay: Streptococcus pyogenes SK(-)GAS viability under kanamycin – luminescence, BacTiterGlo, confirmation, counter-screen for streptokinase expression inhibitor project, dose response (AID 1900); format: functional, organism-based
# Streptokinase A = biological target: T4, Streptokinase A (Streptococcus pyogenes serotype M1, UniProt P10520); assay: viability-normalized secreted streptokinase activity reduction – plasminogen activation absorbance, OD405, dose response (AID 1914); format: functional, Streptococcus pyogenes M1 GAS;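 further: secreted streptokinase activity via plasminogen activation per viability signal from cell pellet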
# T4 sequence (P10520 whole entry): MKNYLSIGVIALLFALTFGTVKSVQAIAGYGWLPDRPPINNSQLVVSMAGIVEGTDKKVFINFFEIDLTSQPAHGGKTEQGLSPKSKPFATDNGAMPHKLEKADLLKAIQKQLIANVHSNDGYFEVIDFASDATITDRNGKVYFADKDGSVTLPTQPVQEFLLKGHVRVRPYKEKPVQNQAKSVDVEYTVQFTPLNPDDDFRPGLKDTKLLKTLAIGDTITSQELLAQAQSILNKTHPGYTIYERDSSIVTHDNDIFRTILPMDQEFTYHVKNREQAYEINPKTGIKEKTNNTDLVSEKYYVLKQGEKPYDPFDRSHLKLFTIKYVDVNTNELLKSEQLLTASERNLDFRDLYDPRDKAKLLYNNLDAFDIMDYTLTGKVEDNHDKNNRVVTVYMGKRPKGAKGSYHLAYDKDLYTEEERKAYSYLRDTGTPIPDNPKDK
# Streptococcus = assay: GAS UMAA2166 growth inhibition – luminescence, BacTiterGlo, counter-screen for streptokinase expression inhibitor project, dose response (AID 1915); format: functional, organism-based;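 further: potency for reduction of bacterial viability or growth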
# Protein skinhead-1 = biological target: T5, Protein skinhead-1 (Caenorhabditis elegans, UniProt P34707); format: functional
# T5 sequence (P34707 whole entry): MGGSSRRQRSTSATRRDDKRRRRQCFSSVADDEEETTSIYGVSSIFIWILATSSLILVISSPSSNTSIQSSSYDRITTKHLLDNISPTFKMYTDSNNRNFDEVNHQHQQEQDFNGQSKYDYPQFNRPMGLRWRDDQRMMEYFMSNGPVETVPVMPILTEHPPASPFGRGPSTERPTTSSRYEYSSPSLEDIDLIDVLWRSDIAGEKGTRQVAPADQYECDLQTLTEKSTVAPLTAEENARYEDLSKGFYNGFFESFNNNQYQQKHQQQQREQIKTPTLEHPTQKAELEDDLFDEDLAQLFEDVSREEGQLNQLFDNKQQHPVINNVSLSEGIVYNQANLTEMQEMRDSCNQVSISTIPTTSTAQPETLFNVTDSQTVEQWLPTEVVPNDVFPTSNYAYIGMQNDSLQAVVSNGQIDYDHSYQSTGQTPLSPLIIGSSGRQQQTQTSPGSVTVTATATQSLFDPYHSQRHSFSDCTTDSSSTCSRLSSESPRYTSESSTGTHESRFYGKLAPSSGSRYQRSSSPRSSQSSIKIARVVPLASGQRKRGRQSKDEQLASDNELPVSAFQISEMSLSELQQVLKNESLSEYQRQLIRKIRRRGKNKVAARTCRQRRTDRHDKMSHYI
# [15] = Trypanosoma cruzi growth suppression in host cells – NIH3T3 host cells, beta-gal luminescence, confirmation (AID 2044); format: functional, cell-based;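 further: intracellular parasites grown in NIH/3T3 mouse fibroblasts as host cells; luminescent beta-galactosidase reporter signal from transgenic T. cruzi replicating inside host cells; inhibitors lower the luminescence signal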
# [16] = NIH3T3 cell viability loss – ATP luminescence, mouse fibroblasts, counter-screen, dose response (AID 2010); format: functional, cell-based;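 further: cells exposed to compound for about 90 hours before reading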
# Paired box protein Pax-8 = Paired box protein Pax-8 (Homo sapiens, UniProt Q06710); assay: PAX8 transcriptional activity inhibition in RMG-I – RMG-I cells, luciferase, cherry-pick, dose response (AID 687027); format: functional, cell-based;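 further: luciferase reporter driven by Pax8 target thyroperoxidase promoter measured by SteadyGlo luminescence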
# Sequence of Paired box protein Pax-8 (Q06710 whole entry): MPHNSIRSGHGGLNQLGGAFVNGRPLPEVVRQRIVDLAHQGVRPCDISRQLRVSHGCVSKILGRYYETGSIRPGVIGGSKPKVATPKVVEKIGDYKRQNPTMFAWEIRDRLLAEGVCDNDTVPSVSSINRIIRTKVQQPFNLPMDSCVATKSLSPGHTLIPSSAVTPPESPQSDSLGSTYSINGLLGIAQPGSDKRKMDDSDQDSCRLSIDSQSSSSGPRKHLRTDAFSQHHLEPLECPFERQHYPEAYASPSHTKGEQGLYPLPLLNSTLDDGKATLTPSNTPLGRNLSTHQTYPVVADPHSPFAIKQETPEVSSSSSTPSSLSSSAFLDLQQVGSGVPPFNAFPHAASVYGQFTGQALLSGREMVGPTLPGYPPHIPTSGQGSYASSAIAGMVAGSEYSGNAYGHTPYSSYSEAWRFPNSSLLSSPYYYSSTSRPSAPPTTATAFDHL
# INS1 = assay: INS-1E survival protection against cytokine death – cell-based, luminescence, retest, dose response (AID 449756); format: functional; conditions: Rattus norvegicus;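 further: cell death triggered by IL-1 beta plus TNF-alpha plus IFN-gamma mixture; protective hits raise ATP signal compared with cytokine alone wells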
structure (smiles),measurement,setting,value
Cc1cccc2cc(C#N)c(NCCCn3ccnc3)nc12,CC50,[1],> 40 µM (active)
same,IC50,cells [2],43.2 µM (active)
CCN(CC)c1ccc(NC(=O)c2ccc(Br)o2)c(C)c1,AC50,[3],1.61 µM (active)
CC1CCN(C(=O)C2CCN(CCCc3ccccc3)CC2)CC1,EC50,[4],7.69 µM (active)
O=C(Nc1nc2ccccc2[nH]1)c1ccc(F)cc1,CC50,[1],> 40 µM (active)
same,IC50,cells [2],4.33 µM (active)
Cc1ccc(C(=O)NCc2ccco2)cc1S(=O)(=O)Nc1cccc(Cl)c1,EC50,[5],> 150 µM (inactive)
same,EC50,[4],5.11 µM (active)
Nc1nc(-c2ccc3ccccc3c2)cs1,AC50,[3],0.188 µM (active)
CCOC(=O)N1CCN(C(=O)c2ccc(Cn3c(=S)[nH]c4cc(OCC)c(OCC)cc4c3=O)cc2)CC1,EC50,cells [6],> 350 µM (not active)
same,EC50,cells [7],> 350 µM (not active)
COc1ccccc1CCC(=O)OCC(=O)c1c(N)n(CC(C)C)c(=O)n(C)c1=O,IC50,[8],14.8 µM (active)
O=C1NC(c2ccccc2)(C(F)(F)F)SC2=CCCCCN12 (configuration not stated),IC50,[9],> 66 µM (inactive)
same,IC50,[10],> 66 µM (inactive)
O=C(CN1C(=O)COc2ccc(Cl)cc21)Nc1ccc2c(c1)OCCO2,EC50,cells [6],> 350 µM (not active)
same,EC50,cells [7],> 350 µM (not active)
CCCCC(CC)C(=O)NCc1ccccc1OC (configuration not stated),IC50,Estrogen receptor beta,> 50 µM (not active)
CC(C)Oc1ccc(C2CC(=O)N(Nc3ccc([N+](=O)[O-])cc3[N+](=O)[O-])C2=O)cc1 (configuration not stated),IC50,Fatty acid synthase [11],0.577 µM (active)
same,IC50,Fatty acid synthase [12],0.846 µM (active)
Oc1ccc(-c2nnc(S)n2-c2ccc(F)c(Cl)c2)nn1,AC50,[3],7.36 µM (active)
O=C1C2CCCCC2C(=O)N1c1nc(Cc2ccccc2)n[nH]1 (configuration not stated),IC50,[13],> 100 µM (not active)
CCOc1ccc(NC(=O)CN(c2cccc(C(F)(F)F)c2)S(C)(=O)=O)cc1,EC50,[4],9.24 µM (active)
O=C(NC(=S)NNS(=O)(=O)c1ccc(Cl)cc1)c1cccnc1,IC50,[9],> 66 µM (inactive)
same,IC50,[10],> 66 µM (inactive)
CCC(SC1=NCCS1)C(=O)Nc1ccc(S(N)(=O)=O)cc1 (configuration not stated),IC50,[9],> 66 µM (inactive)
same,IC50,[10],> 66 µM (inactive)
CC1CCCCC1NC(=O)CCn1ccc2cc(S(=O)(=O)N3CCCC3)ccc21 (configuration not stated),EC50,[14],> 150 µM (not active)
same,EC50,Streptokinase A,> 150 µM (not active)
same,EC50,Streptococcus,> 150 µM (not active)
same,IC50,[8],17 µM (active)
O=C(CCc1ccccc1F)N1CCN(c2ccccc2)CC1,AC50,[3],> 100 µM (inactive)
CC(C)c1onc(C(=O)Nc2sc3c(c2C#N)CCC3)c1[N+](=O)[O-],EC50,cells [6],> 350 µM (not active)
same,EC50,cells [7],> 350 µM (not active)
O=C(Nc1ccc2c(c1)OCO2)N1CCN(c2ncc(C(F)(F)F)cc2Cl)CC1,EC50,[4],1.99 µM (active)
CN(CC(=O)N1CCN(c2ccccc2)CC1)S(=O)(=O)c1c[nH]cn1,AC50,[3],4.58 µM (active)
Cc1cc(C)cc(NC(=O)CSc2nnc(Cc3cccn3C)n2-c2ccc(F)cc2)c1,EC50,[4],2.01 µM (active)
O=C(CCNC(=O)c1ccc([N+](=O)[O-])cc1)NCCc1ccccc1,IC50,Fatty acid synthase [11],10.3 µM (active)
same,IC50,Fatty acid synthase [12],11.2 µM (active)
Clc1ccc(OCCCCSc2ncccn2)cc1,IC50,[9],> 66 µM (inactive)
same,IC50,[10],> 66 µM (inactive)
same,IC50,Protein skinhead-1,21.7 µM (active)
CC[n+]1c(/C=C(\C)Nc2ccccc2)sc2ccccc21,CC50,[1],30.1 µM (active)
CC(=O)Nc1ccc(SC[C@H](Cc2ccccc2)N2CC[C@@H](C(C)(C)C)CCC2=O)cc1,IC50,[9],> 66 µM (inactive)
same,IC50,[10],> 66 µM (inactive)
O=C(NNS(=O)(=O)c1ccc(C(=O)NC2CCCC2)cc1)c1ccncc1,AC50,[3],1.67 µM (active)
O=C(c1ccccc1)N1CC(COc2ccccc2)OC(c2ccco2)O1 (configuration not stated),EC50,[4],12.4 µM (active)
Cc1ccc(-c2cc(C(F)(F)F)n3nc(C(=O)Nc4c(C)n(C)n(-c5ccccc5)c4=O)cc3n2)cc1,EC50,cells [6],> 350 µM (not active)
same,EC50,cells [7],> 350 µM (not active)
COc1ccccc1NC(=O)C1CCCN(c2ncnc3c2nc2n3CCCCC2)C1 (configuration not stated),IC50,[8],15.1 µM (active)
c1ccc(CCc2nn3c(Cc4ccccc4)nnc3s2)cc1,IC50,[8],27.5 µM (active)
CCc1ccc(Nc2c([N+](=O)[O-])nn(-c3ccc4c(c3)OCCO4)[n+]2[O-])cc1,EC50,[15],0.447 µM (active)
same,EC50,[16],> 60 µM (not active)
same,IC50,[8],12.6 µM (active)
Cc1ccc([N+](=O)[O-])cc1NC(=O)CCSc1ccc(Cl)cc1,IC50,Fatty acid synthase [11],6.23 µM (active)
same,IC50,Fatty acid synthase [12],7.75 µM (active)
CCOC(=O)N1CCc2[nH]c3ccc(C)cc3c2C1,IC50,[9],> 66 µM (inactive)
same,IC50,[10],55.2 µM (inactive)
N#CC1=C(N)Oc2cc(N)ccc2C1C1CC=CCC1 (configuration not stated),AC50,[3],5.72 µM (active)
CC(=O)OCc1c(C(F)(F)F)nn(C)c1Oc1cccc(C(F)(F)F)c1,EC50,[4],8.45 µM (active)
CCCn1c2ccccc2c2cnn(CC(=O)NCCCN3CCCCC3)c(=O)c21,IC50,[8],12.6 µM (active)
Cc1ccc(-c2nnc(COC(=O)c3cc(O)nc4ccccc34)o2)cc1,IC50,Fatty acid synthase [11],10.4 µM (active)
same,IC50,Fatty acid synthase [12],9.54 µM (active)
O=C(COC(=O)c1cc([N+](=O)[O-])ccc1N1CCOCC1)NCc1ccccc1,IC50,Fatty acid synthase [11],0.841 µM (active)
same,IC50,Fatty acid synthase [12],0.683 µM (active)
C[C@H](CO)N1C[C@H](C)[C@@H](CN(C)S(=O)(=O)c2ccc(Cl)cc2)OCCCC[C@H](C)Oc2ccc(NS(=O)(=O)c3ccc(Cl)cc3)cc2C1=O,AC50,Paired box protein Pax-8,4.34 µM (active)
CC(/C=C/c1ccccc1F)=N\NC(=O)c1ccccc1,CC50,[1],> 40 µM (active)
same,IC50,cells [2],21.8 µM (active)
O=c1c2ccccc2nc(COc2ccccc2)n1/N=C/c1ccc(O)cc1O,EC50,cells [6],10.6 µM (active)
same,EC50,[15],2.48 µM (active)
same,EC50,cells [7],31.9 µM (active)
same,EC50,[16],8.68 µM (active)
same,AC50,INS1,4.63 µM (active)
